Drawing on patent publication US9725463B2, “Substituted heterocyclic compounds as CRAC modulators” (LUPIN LIMITED, priority 2013, dated 2017), this text covers IC50 for 11 compounds.

Some results are limits rather than exact numbers.

The test system of this assay is IL-2 secretion by Jurkat T cells. Kind of assay: Inhibition of IL-2 secretion. It is filed as cell-based. The settings on record: Homo sapiens; Jurkat T cells stimulated with PHA, 20 to 24 hours, IL-2 by ELISA. How it is done:
The CRAC channel modulatory activity of the compounds were thus evaluated by measuring the secretion of IL-2 by antigen stimulated T-cells in vitro. Alternatively, such activity can also be evaluated by assay methods known to one skilled in the art.
Inhibition of IL-2 secretion: Jurkat T cells were seeded at a density of 0.5 to 1 million cells per well in RPMI medium. Test compounds from this invention were added to the cells at different concentrations. This was followed by the addition of PHA, a T cell mitogen after 10 minutes. The cells were then incubated for 20 to 24 hours in a CO2 incubator at 37° C. After incubation with the compounds, cells were centrifuged, the supernatant was collected and processed for ELISA to quantitate the amount of IL-2 secreted. A commercial ELISA kit (R&D Systems, Inc. Minneapolis, Minn., USA) was used to estimate the IL-2 concentrations. Amount of IL-2 secreted by cells stimulated with PHA was considered as a 100% maximal signal and the decrease in amount of IL-2 secreted by cells treated with the test compounds was expressed as percent inhibition of the maximal signal. The dose response data was analyzed using 4-parametric sigmoidal dose response (variable slope) curve-fit.
Take `Cc1cc2oc(=O)n(C)c2cc1-c1ccc(NC(=O)c2c(F)cccc2F)nc1` [Example 53, N-(5-(3,6-Dimethyl-2-oxo-2,3-dihydrobenzo [d]oxazol-5-yl)pyridin-2-yl)-2,6-difluoro benzamide]: the IC50 fell in the range of 25 to 50 nM.

Take `Cc1c(-c2ccc(NC(=O)c3c(F)cccc3F)cc2)cnc2c1oc(=O)n2C` [Example 1, N-(4-(3,7-Dimethyl-2-oxo-2,3-dihydrooxazolo[4,5-b]pyridin-6-yl)phenyl)-2,6-difluorobenzamide]: the IC50 was in the range of 25 to 50 nM.

In turn, `Cc1cc2oc(=O)n(CCF)c2cc1-c1ccc(NC(=O)c2c(F)cccc2F)cc1` [Example 30, 2,6-Difluoro-N-(4-(3-(2-fluoroethyl)-6-methyl-2-oxo-2,3-dihydrobenzo[d]oxazol-5-yl)phenyl)benzamide] yielded an IC50 of less than 25 nM.

With `Cc1cc2oc(=O)n(C(F)F)c2cc1-c1ccc(NC(=O)c2c(F)cccc2F)cc1` [Example 32, N-(4-(3-(Difluoromethyl)-6-methyl-2-oxo-2,3-dihydrobenzo[d]oxazol-5-yl)phenyl)-2,6-difluorobenzamide], the IC50 was less than 25 nM.

Regarding `CCc1cc2oc(=O)n(C)c2cc1-c1ccc(NC(=O)c2c(F)cccc2F)cn1` [Example 81, N-(6-(6-Ethyl-3-methyl-2-oxo-2,3-dihydrobenzo [d]oxazol-5-yl)pyridin-3-yl)-2,6-difluoro benzamide], the IC50 is 50 to 100 nM.

The compound `CCc1c(-c2ccc(NC(=O)c3c(F)cccc3F)cc2)ccc2c1oc(=O)n2C` [Example 16, N-(4-(7-Ethyl-3-methyl-2-oxo-2,3-dihydrobenzo [d]oxazol-6-yl)phenyl)-2,6-difluorobenzamide] gave an IC50 of 25 to 50 nM.

With `Cc1cc2oc(=O)n(C(F)F)c2cc1-c1ccc(NC(=O)c2c(F)cccc2F)nc1` [Example 77, N-(5-(3-(Difluoromethyl)-6-methyl-2-oxo-2,3-dihydrobenzo[d]oxazol-5-yl)pyridin-2-yl)-2,6 difluorobenzamide], the IC50 is less than 25 nM.

`CCc1cc2c(cc1-c1ccc(NC(=O)c3c(F)cccc3F)nc1)OCC(=O)N2C` [Example 122, N-(5-(6-Ethyl-4-methyl-3-oxo-3,4-dihydro-2H-benzo[b][1,4]oxazin-7-yl)pyridin-2-yl)-2,6-difluorobenzamide]: the IC50 is less than 25 nM.

In turn, `CCc1cc2c(cc1-c1ccc(NC(=O)c3c(F)cccc3F)nc1)oc(=O)n2C` [Example 69, N-(5-(5-Ethyl-3-methyl-2-oxo-2,3-dihydrobenzo [d]oxazol-6-yl)pyridin-2-yl)-2,6-difluoro benzamide] came in with an IC50 of 25 to 50 nM.

In turn, `CCc1cc2c(cc1-c1ccc(C(=O)Nc3c(F)cccc3F)s1)oc(=O)n2C` [Example 73, N-(2,6-Difluorophenyl)-5-(5-ethyl-3-methyl-2-oxo-2,3-dihydrobenzo [d]oxazol-6-yl) thiophene-2-carboxamide] had an IC50 of 25 to 50 nM.

As to `Cn1c(=O)oc2c(C3CC3)c(-c3ccc(NC(=O)c4ccccc4Cl)cc3)ccc21` [Example 103, 2-Chloro-N-(4-(7-cyclopropyl-3-methyl-2-oxo-2,3-dihydrobenzo[d]oxazol-6-yl)phenyl)benzamide], the IC50 lay within 50 to 100 nM.
